# Data published in US20200246298A1, “Composition for Preventing or Treating Asthma Comprising Fatty Acid as Active Ingredient” (Dongshin University Industry-Academy Cooperation, priority 2019, published 2020).
# Columns and labels:
# Experiment in all cases: ELISA analysis in lung tissue, OVA-induced asthma
# Assay type in all cases: in vivo, BALB/c mice
# [1] = test system: IL-12p40; conditions: palmitic acid 5, 25, 50 mg/kg oral, particularly the 25 mg/kg group, FIG. 21
# Experimental: (§1) In test groups, the animals determined to be healthy during the acclimation period were ranked by measuring the weight, and were randomly grouped so that the average weight of each group was uniform. The animals were divided into a total of 9 groups: a control group; a control group with OVA-induced asthma; a positive control group; groups administered with each of 50 mg/kg, 125 mg/kg and 250 mg/kg of oleic acid; and groups administered with each of 5 mg/kg, 25 mg/kg and 50 mg/kg of palmitic acid. The animals were sensitized via intraperitoneal injection of OVA once a week for 2 weeks after the acclimation period. During 5 days of week 3, dexamethasone (DEX) and the test substances oleic acid and palmitic acid were orally administered in the morning and 5% OVA solution was inhaled in the afternoon. The test substance was orally administered in an amount of 28 μL per weight (g) of the experimental animal, and OVA for sensitization was administered in a constant amount regardless of the weight. After 5 days of administration, autopsy was performed the next day. To analyze the levels of IFN-γ, IL-12p40, IL-4, IL-5, IL-6, and TNF-α in lung tissue, OptEIA mouse ELISAs were purchased from BD Biosciences. The IL-13 levels were assessed using the AbFrontier Cymax mouse FT ISA kit (AbFrontier, Seoul, Korea). All assays were performed according to the manufacturers' guidelines. All lung samples were prepared by a lysis buffer made with a protease inhibitor cocktail and an RIPA buffer (Thermo Fisher Scientific). Aliquots of lung tissue from all groups were weighed and homogenized with lysis buffer. They were then centrifuged at 8,200 rpm for 15 minutes, and the supernatants were harvested and measured using a microplate reader (EZ Read 400, Biochrom, Cambourne, UK).
# [2] = test system: IL-13; conditions: palmitic acid 5, 25, 50 mg/kg oral, particularly the 50 mg/kg group, FIG. 24
# Experimental: as §1
# [3] = test system: IL-4; conditions: palmitic acid 5, 25, 50 mg/kg oral, particularly the 50 mg/kg group, FIG. 22
# Experimental: as §1
# [4] = test system: IL-5; conditions: palmitic acid 5, 25, 50 mg/kg oral, particularly the 5 mg/kg group, FIG. 23
# Experimental: as §1
# [5] = test system: TNF-α; conditions: palmitic acid 5, 25, 50 mg/kg oral, particularly the 50 mg/kg group, FIG. 25
# Experimental: as §1
# [6] = test system: IFN-γ; conditions: palmitic acid 5, 25, 50 mg/kg oral, vs OVA, FIG. 20
# Experimental: as §1
# [7] = test system: IL-6; conditions: palmitic acid 5, 25, 50 mg/kg oral, particularly the 50 mg/kg group
# Experimental: as §1
structure (smiles),measurement,setting,value
CCCCCCCCCCCCCCCC(=O)O [palmitic acid],expression level of IL-12p40,[1],decreased
same,expression level of IL-13,[2],decreased
same,expression level of IL-4,[3],decreased
same,expression level of IL-5,[4],decreased
same,expression level of TNF-α,[5],decreased
same,expression level of IFN-γ,[6],dose-dependently decreased
same,expression level of IL-6,[7],decreased
